Results on 9 molecules are retold here after paper PMC6366974, “The curcumin analog EF24 is a novel senolytic agent” (Aging (Albany NY), 2019).

On the set-up of data set [1]: method as in PMID 20211249. The conditions noted are these: cited from earlier work.
Data set [2] relates to WI-38 IR-SCs. Kind of data set: Apoptosis analysis (Annexin-V/PI flow cytometry). The data set is classed as cell-based, human. The conditions noted are these: 10 µM QVD 4 h prior to 2 µM EF24 for 72 h. On the procedure:
WI-38 NCs and SCs were treated with vehicle or 10 µM Q-VD-OPh (QVD, Cat. No. S7311, Selleckchem, Houston, TX, USA) for 4 h prior to the addition of vehicle or 2 µM EF24 for 72 h. The suspending cells were first harvested from the culture and then pooled with the adherent cells detached by 0.25% Trypsin-EDTA at 37°C for 5 min in 12 × 75 mm polystyrene round-bottom tubes (Cat. No. 352058, Falcon, Corning, NY, USA) containing complete DMEM medium. The cells were stained with Alexa Fluor 647-Annexin V (1: 50, Cat. No. 640912, BioLegend, San Diego, CA, USA) and PI (10 µg/mL, Cat. No. 421301, BioLegend, San Diego, CA, USA) at room temperature for 30 min. The stained cells were analyzed using a BD LSR II flow cytometer.
In general terms: Flow cytometry measures light scatter and fluorescence of single cells or particles in a stream.

In data set [3] the test system is WI-38 IR-induced senescent cells (IR-SCs). Kind of data set: Cell viability assay (flow cytometry, PI). The conditions noted are these: for EC50: Homo sapiens, WI-38 IR-SCs, 72 h, Table 1 screen of curcumin analogs; for selective toxicity against IR-SCs versus NCs (viability): WI-38, 72 h. The format is cell-based, human. As for the experimental part:
(§1) Human WI-38 fibroblasts (WI-38, Cat. No. CCL-75), human IMR-90 fibroblasts (IMR-90, Cat. No. CCL-186), human umbilical vein endothelial cells (HUVEC, Cat. No. CRL-1730), human renal epithelial cells (HREC, Cat. No. PCS-400-012) and human pre-adipocytes (Cat. No. PCS-210-010) were newly purchased from the American Type Culture Collection (ATCC, Manassas, VA, USA). WI-38 and IMR-90 cells were cultured in complete Dulbecco’s modified Eagle medium (DMEM, Cat. No. 12430054, Thermo Fisher Scientific, Waltham, MA, USA) supplemented with 10% heat-inactivated fetal bovine serum (FBS, Cat. No. S11150H, Atlanta Biologicals, Flowery Branch, GA, USA), 100 U/mL penicillin and 100 µg/mL streptomycin (Pen Strep, Cat. No. 15140122, Thermo Fisher Scientific, Waltham, MA, USA) in a humidified incubator at 37°C and 5% CO2. HUVEC were cultured in EGM-2 BulletKit (Cat. No. CC-3162, Lonza, Basel, Switzerland) containing basal medium supplemented with growth factors, cytokines and other supplements according to the manufacturer’s protocol. HREC were cultured in renal epithelial cell basal medium (Cat. No. PCS-400-030, ATCC, Manassas, VA, USA) supplemented with renal epithelial cell growth kit (Cat. No. PCS400040, ATCC, Manassas, VA, USA). Human pre-adipocytes were cultured in fibroblast basal medium (Cat. No. PCS-201-030, ATCC, Manassas, VA, USA) supplemented with fibroblast growth kit-low serum (Cat. No. PCS201041, ATCC, Manassas, VA, USA). EF24 (Cat. No. E8409) and HO-3867 (Cat. No. S7501) were purchased from Sigma-Aldrich (St. Louis, MO, USA) and Selleckchem (Houston, TX, USA), respectively. DIMC (Cat. No. 10009986) and 2-HBA (Cat. No. 11879) were both purchased from Cayman Chemical (Ann Arbor, MI, USA).
(§2) Three different methods were used for the induction of SCs, including replicative exhaustion, ionizing radiation and ectopic Ras expression as previously described. Briefly, low-passage WI-38 cells (< 25 passages), IMR-90 cells (< 25 passages), HUVEC (< 10 passages), HREC (< 10 passages) and pre-adipocytes (< 4 passages) were used as NCs or for the induction of senescence. To induce replicative senescence (Rep-SCs), WI-38 and IMR-90 fibroblasts, HUVEC, HREC and pre-adipocytes were subcultured until they stopped to divide and became permanently growth arrested senescence after 38 passages (WI-38), 38 passages (IMR-90), 22 passages (HUVEC), 30 passages (HREC) and 10 passages (pre-adipocytes), respectively. To induce SCs by ionizing radiation (IR-SCs) and ectopic expression of Ras (Ras-SCs), WI-38 NCs were treated as previously described.
(§3) Number of viable cells were quantified using flow cytometry as previously described with slight modifications. Specifically, NCs and SCs were incubated with vehicle (0.1% DMSO) or a test compound at indicated concentrations for 72 h. Following dissociation with 0.25% Trypsin-EDTA (Cat. No. 25200056, Thermo Fisher Scientific, Waltham, MA, USA) at 37°C for 5 min, the cells were harvested in 100 µl pre-cooled phosphate buffered saline (PBS, Cat. No. 20012027, Thermo Fisher Scientific, Waltham, MA, USA) containing 2% FBS and 100 ng/mL propidium iodide (PI, P4170, Sigma-Aldrich, St. Louis, MO, USA) and analyzed using flow cytometry (LSR II, BD Biosciences, San Jose, CA, USA). Percentage of viable cells were determined by counting the number of PI negative cells (viable cells) and then calculated as a ratio of control cells treated with vehicle. In addition, dose-response curves were generated for each compound, and the concentration for 50% of maximal effect (EC50 values) was calculated using GraphPad Prism 6.

Data set [4] relates to WI-38 non-senescent cells (NCs). Kind of data set: Cell viability assay (flow cytometry, PI). The data set is classed as cell-based, human. The note with it: Homo sapiens; WI-38 NCs, 72 h, Table 1 screen of curcumin analogs. As for the experimental part: as §1, §2, §3
In data set [5] the test system is Bcl-2 family proteins (Bcl-xl, Mcl-1, Bcl-2). Kind of data set: Proteasome inhibition experiment (MG132 pretreatment, western blots). The format is cell-based, human. The note with it: 1 µM MG132 1 h prior to EF24 for 72 h. On the procedure:
After treatment with vehicle or EF24 at 0.5, 1 and 2 µM for 72 h, WI-38 NCs or IR-SCs were harvested in 1.5mL microcentrifuge tubes, and lysed in RIPA buffer with EDTA and EGTA (Cat. No. BP-115DG, Boston BioProducts, Ashland, MA, USA) supplemented with 1% protease inhibitor cocktail (Cat. No. P8340, Sigma-Aldrich, St. Louis, MO, USA) and 1% phosphatase inhibitor cocktail (Cat. No. P0044, Sigma-Aldrich, St. Louis, MO, USA). An equal amount of protein (30 µg/lane) from each cell extract was resolved on a precast gel (Mini-PROTEAN TGX™, Cat. No. 456-1094, Bio-Rad, Hercules, CA, USA). Proteins were blotted to a precut 0.2 µm PVDF membrane (Invitrolon™, Cat. No. LC2002, Life Technologies, Carlsbad, CA, USA) by electrophoresis. The membranes were blocked with 1X TBS-Tween (TBST, Cat. No. J77500, Affymetrix, Santan Clara, CA, USA) containing 5% non-fat dry milk (Cat. No. sc-2324, Santa Cruz Biotechnology, Dallas, TX, USA), and subsequently probed with primary antibodies at a predetermined optimal concentration overnight at 4°C. The primary antibodies including Bcl-xl (Cat. No. 2762), Mcl-1 (Cat. No. 5453), and Bcl-2 (Cat. No. 2872) and β-actin (Cat. No. 4970) were purchased from Cell Signaling Technology (Danvers, MA, USA). […] The blotting membranes were recorded using autoradiography (SRX-101, Konica, Shinjuku, Tokyo, Japan). […]
In general terms: A western blot detects proteins with antibodies after separation by electrophoresis.

Data set [6] deals with WI-38 IR-SCs. Kind of data set: Combination treatment cell viability and coefficient of drug interaction (CDI). The conditions noted are these: 72 h. The format is cell-based, human. On the procedure: as §3
The data were analyzed by analysis of variance (ANOVA) with GraphPad Prism 6 (GraphPad Software, La Jolla, CA, USA). […] To detect the synergistic senolytic activities of EF24 and ABT263, CDI was calculated as previously described.

A further data set deals with platelets. Details: method as in PMID 22496272. The note with it: cited from earlier work.
The test system of data set [7] is senescent human preadipocytes. The arrangement: method as in PMID 28273655. The conditions noted are these: cited from earlier work.

Residues, ends and D or L forms follow the SMILES beside them. *: point of attachment. Cbz = O=C(OCc1ccccc1)*

In the case of `C=CCNC1=C2C[C@@H](C)C[C@H](OC)[C@H](O)[C@@H](C)/C=C(\C)[C@H](OC(N)=O)[C@@H](OC)/C=C\C=C(/C)C(=O)NC(=CC1=O)C2=O` [17-AAG], the hepatotoxicity result in data set [1] is “unacceptable hepatotoxicity”.
In the case of `CC(C)[C@H](NC(=O)c1ccc2ccccc2n1)C(=O)N[C@@H](CC(=O)O)C(=O)COc1c(F)cccc1F` [QVD], the “effect of QVD pretreatment on EF24 induction of SCs apoptosis” value with WI-38 IR-SCs [2] was “completely blocked”.
In general, EC50 refers to the concentration giving half of the maximal effect. Consider `COc1ccc(/C=C/C(=O)CC(=O)/C=C/c2ccc(OC)c(OC)c2)cc1OC` [DIMC, dimethoxycurcumin], for which, in data set [3], the EC50 stood at 15.2 µM and the “selective toxicity against IR-SCs versus NCs (viability)” value (shortened to “selective toxicity”) is “minimal selective toxicity”. In addition, the response in data set [4] was half-maximal at 23.8 µM (EC50).
`CC(C)C[C@@H](C=O)NC(=O)[C@H](CC(C)C)NC(=O)[C@H](CC(C)C)NC(=O)OCc1ccccc1` [MG132] (Cbz-Leu-Leu-Leu-aldehyde): the “effect of MG132 pretreatment on downregulation of Bcl-2 family proteins by EF24 in SCs” value in data set [5] (WI-38 IR-SCs) is on record as “abrogated”. Further, the “effect of MG132 pretreatment on expression of Bcl-2 family proteins in NCs” value in data set [5] (WI-38 NCs) was “no significant effect”.
In the case of `O=C(C=Cc1ccccc1O)C=Cc1ccccc1O` [2-HBA, Bis(2-hydroxybenzylidene)acetone], in data set [3], the EC50 was found to be 3.85 µM and the “selective toxicity” value was “lesser toxicities to NCs”. Besides, the EC50 in data set [4] is 9.5 µM.
Consider `CC1(C)CCC(c2ccc(Cl)cc2)=C(CN2CCN(c3ccc(C(=O)NS(=O)(=O)c4ccc(N[C@H](CCN5CCOCC5)CSc5ccccc5)c(S(=O)(=O)C(F)(F)F)c4)cc3)CC2)C1` [ABT263], for which the “cell viability of IR-SCs, agent alone” value in the data set with WI-38 IR-SCs [6] is reported as “dose-dependently reduce”. Moreover, in the data set on platelets, the “on-target toxicity to platelets” value is recorded as “dose-limiting thrombocytopenia”.
With `O=c1c(O)c(-c2ccc(O)c(O)c2)oc2cc(O)ccc12` [fisetin], the “senolytic activity against senescent human preadipocytes” value in data set [7] is “lacks senolytic activity”.
On to `CC1(C)C=C(CN2C/C(=C\c3ccc(F)cc3)C(=O)/C(=C/c3ccc(F)cc3)C2)C(C)(C)N1O` [HO-3867], for which the concentration for a half-maximal effect (EC50) in data set [3] was 3.85 µM; in data set [4], 8.3 µM. Also, in data set [3], the “selective toxicity” value is given as “lesser toxicities to NCs”.
As to `COC1=C2C[C@@H](C)C[C@H](OC)[C@H](O)[C@@H](C)/C=C(\C)[C@H](OC(N)=O)[C@@H](OC)/C=C\C=C(/C)C(=O)NC(=CC1=O)C2=O` [geldanamycin], the hepatotoxicity entry in data set [1] is on record as “unacceptable hepatotoxicity”.
